Data from patent publication US20250287955A1, “METHODS OF […] PLANT FROM INSECT PESTS” (NOVONESIS PLANT BIOSOLUTIONS A/S, priority 2018, published 2025).
Where two headings read alike, the source gives them in different places.

System: 3rd instar cabbage looper
Experiment: cabbage leaf disc dip bioassay, mortality of cabbage looper
Assay type: in vivo
Experimental: An enzyme preparation, designated A, comprising an enzyme having lipase activity was diluted to 10% of the original concentration. 1 mL of the enzyme was added to 9 mL of phosphate buffered saline (PBS). The diluted enzyme was desalted using a desalting column from Sigma Aldrich. Each column having the capacity to desalt 2.5 mL of enzyme, 4 columns for the enzyme were used. Each column was equilibrated with 25 mL of PBS. 2.5 mL of sample was loaded into the column, the flow thru was discarded. 3.5 mL of PBS was added to elute the desalted enzyme. This flow thru was collected for use in the bioassay. 4.95 mL of the desalted enzyme was added to 99 mL PBS.
The chlorpyrifos insecticide (Sigma 45395) was prepared based on a stock solution of 10× (113 mg/L) using acetone. The insecticide was then diluted further using acetone to a 1:6 ratio.
Approximately 0.3 g of super absorbent granules were placed into 1.25 ounce cups and 6 mL of deionized water was added to hydrate the granules. Discs of green cabbage (2.8 cm) were cut with plastic tubing after the outer leaves had been removed. One disc was used for each individual insect. After cutting, leaf discs were rinsed in deionized water and spin dried in a small salad spinner to remove excess water.
Liquid treatments were poured into either 50 mL glass beakers for the insecticide or medium weigh boats for aqueous treatments and cabbage leaf discs were dipped in the treatment with disposable forceps, tilted to allow excess liquid to run off, and placed into cups with hydrated granules at an angle.
The cabbage leaf discs were dipped in either acetone (enzyme alone treatment) or chlorpyrifos at 18.83 mg/L of acetone. These were set to dry for 1 hr. The cabbage discs were then dipped either in phosphate buffer (chlorpyrifos alone treatments) or Enzyme A (enzyme alone or in combination with chlorpyrifos treatment), along with a 0.03% surfactant supplement.
After the cabbage discs had dried for 1 hr, a single 3rd instar cabbage looper was added to each individual cabbage disc in its cup and a paperboard lid was snapped into place. A total of 20 insects were evaluated for each treatment.
Experiment 2: This experiment was performed similar to Experiment 1, except the chemical insecticide was Clothianidin at 1:2, and the enzyme preparation, designated B, comprises an enzyme having glucosidase activity.
Experiment 3: This experiment was performed similar to Experiment 2, except the enzyme preparations, designated C and D, respectively, each comprises a different enzyme having protease activity.

SMILES	LT50 (95% confidence intervals) in days (Experiment 1, estimated time to kill 50% of the insects, Probit analysis, chlorpyrifos 18.83 mg/L, Enzyme A 0.05%, 20 insects per treatment)	mortality at 18.83 µg/mL (Trichoplusia ni, foliar, 168 h, read-out: % Mortality (7DAT), Experiment 1, Abbott's corrected, 7 days after treatment, chlorpyrifos 18.83 mg/L, Enzyme A 0.05%)	LT50 (95% confidence intervals) in days (Experiment 2, Probit analysis, clothianidin 30 mg/L)	LT50 (95% confidence intervals) (Experiment 3, Probit analysis, clothianidin 30 mg/L)	mortality (Trichoplusia ni, foliar, 120 h, Experiment 3, Abbott's corrected, 5 days after treatment, clothianidin 30 mg/L, read-out: % Mortality (5DAT))	mortality at 30 µg/mL (Trichoplusia ni, foliar, 144 h, Experiment 2, Abbott's corrected, 6 days after treatment, clothianidin 30 mg/L, read-out: % Mortality (6DAT))	mortality (Trichoplusia ni, foliar, 144 h, Experiment 3, Abbott's corrected, 6 days after treatment, clothianidin 30 mg/L, read-out: % Mortality (6DAT))	mortality (Trichoplusia ni, foliar, 168 h, Experiment 3, Abbott's corrected, 7 days after treatment, clothianidin 30 mg/L, read-out: % Mortality (7DAT))	mortality (Trichoplusia ni, foliar, 336 h, Experiment 3, Abbott's corrected, 14 days after treatment, clothianidin 30 mg/L, read-out: % Mortality (14DAT))	mortality (Trichoplusia ni, foliar, Experiment 3, Abbott's corrected, 8-11 days after treatment, clothianidin 30 mg/L, read-out: % Mortality (8-11DAT))	mortality (Trichoplusia ni, foliar, Experiment 3, Abbott's corrected, 12-13 days after treatment, clothianidin 30 mg/L, read-out: % Mortality (12-13DAT))
CCOP(=S)(OCC)Oc1nc(Cl)c(Cl)cc1Cl [Chlorpyrifos, chlorpyrifos]	11.11 (9.90-12.48) days	11%	–	–	–	–	–	–	–	–	–
CN/C(=N\[N+](=O)[O-])NCc1cnc(Cl)s1 [Clothianidin]	–	–	19.37 (16.23-23.38) days	12.34 days	15%	0%	20%	30%	45%	40%	45%
